Columns and labels:
[1] = Resistance factor (IC50 resistant/ parent); format: functional
A2780 [2] = experiment: Dose of required to inhibit growth of human ovarian carcinoma (A2780) cell line with compound free controls as measured by the sulforhodamine B growth delay assay; format: functional, cell-based
A2780 [3] = experiment: Dose of required to inhibit growth of cisplatin resistant human ovarian carcinoma (A2780 cisR) cell line with compound free controls as measured by the sulforhodamine B growth delay assay; format: functional, cell-based

| Compound | RF [1] | IC50 (A2780 [2]) | IC50 (A2780 [3]) |
| --- | --- | --- | --- |
| COc1cc2c(cc1OCCCOc1cc3c(cc1OC)C(=O)N1CCC[C@H]1C=N3)N=C[C@@H]1CCCN1C2=O | 29.2 | – | – |
| COC(=O)CC1=CN2C(=O)c3cc(OC)c(OCCCOc4cc5c(cc4OC)C(=O)N4C=C(CC(=O)OC)C[C@H]4C=N5)cc3N=C[C@@H]2C1 | 10.7 | 5.4 nM | 58 nM |
| C=C1C[C@H]2C=Nc3cc(OCCCOc4cc5c(cc4OC)C(=O)N4CC(=C)C[C@H]4C=N5)c(OC)cc3C(=O)N2C1 [SJG-136] | 1 | 0.0225 nM | 0.024 nM |

From ChEMBL document CHEMBL1133832, “Synthesis of the first example of a C2-C3/C2'-C3'-endo unsaturated pyrrolo[2,1-c][1,4]benzodiazepine dimer” (Bioorg Med Chem Lett, 2001)
